From patent publication US11008313B2, “Substituted 1-methyl-1,2,3,4-tetrahydroisoquinoline molecules as PCSK9 allosteric binders” (Merck Sharp & Dohme Corp., priority 2016, dated 2021) come the findings set out here.

The ΔTm is the change in melting temperature against a reference sample.

The target in experiment [1] is T1, PCSK9 (Homo sapiens, UniProt Q8NBP7). Nature of the experiment: Differential scanning calorimetry (DSC) assay, direct binding / thermal stabilization of PCSK9. The following applies: Tm(with compound)−Tm(no compound); 2 μM PCSK9, 300 μM test compound. As to the method: Differential scanning calorimetry (DSC) was used as a biophysical method to confirm direct binding to PCSK9. A solution containing 2 μM PCSK9 with or without 300 μM test compound in 25 mM HEPES (pH 7.5)/150 mM NaCl/1 mM CaCl2/3.75% DMSO was transferred to the sample cell of the DSC instrument, while buffer alone was placed in the reference cell. Both cells were heated at a constant rate (200° C./hr) from 20-80° C. while recording the excess heat capacity of the sample cell relative to the reference cell. Each thermogram was analyzed to provide the melting temperature (Tm) of the protein.
The higher the temperature shift generally, the higher the affinity.
A general note: Differential scanning calorimetry records heat flow against a reference as temperature is scanned.

In experiment [2] the target is T1, PCSK9. Nature of the experiment: Fluorescence polarization competition binding assay (probe: compound of Example 57). Conditions: 2 μM PCSK9, 50 nM compound of Example 57 as probe, overnight incubation; read-out: FP IC. As to the method:
Relative compound affinities were determined using a competition binding assay with a fluorescence polarization format. Solution (49 μL) containing 2 μM PCSK9 and 50 nM compound of Example 57 in 20 mM HEPES (pH 7.5)/150 mM NaCl/1 mM CaCl2/0.005% P-20 was dispensed to wells of a 384-well black non-binding microplate before the addition of 1 μL of test compound or DMSO. After mixing, the plate was centrifuged and sealed for overnight incubation in the dark. The anisotropy signal was read using a fluorescence polarization protocol on a Perkin-Elmer Envision plate reader. The % inhibition was determined relative to the window defined by the DMSO control wells and wells containing 50 nM probe in the absence of PCSK9.
(In fluorescence polarisation assays a small probe gives low polarisation when free and higher when bound to something large.)

The structures appear in SMILES notation.

T1 sequence (Q8NBP7 153-692): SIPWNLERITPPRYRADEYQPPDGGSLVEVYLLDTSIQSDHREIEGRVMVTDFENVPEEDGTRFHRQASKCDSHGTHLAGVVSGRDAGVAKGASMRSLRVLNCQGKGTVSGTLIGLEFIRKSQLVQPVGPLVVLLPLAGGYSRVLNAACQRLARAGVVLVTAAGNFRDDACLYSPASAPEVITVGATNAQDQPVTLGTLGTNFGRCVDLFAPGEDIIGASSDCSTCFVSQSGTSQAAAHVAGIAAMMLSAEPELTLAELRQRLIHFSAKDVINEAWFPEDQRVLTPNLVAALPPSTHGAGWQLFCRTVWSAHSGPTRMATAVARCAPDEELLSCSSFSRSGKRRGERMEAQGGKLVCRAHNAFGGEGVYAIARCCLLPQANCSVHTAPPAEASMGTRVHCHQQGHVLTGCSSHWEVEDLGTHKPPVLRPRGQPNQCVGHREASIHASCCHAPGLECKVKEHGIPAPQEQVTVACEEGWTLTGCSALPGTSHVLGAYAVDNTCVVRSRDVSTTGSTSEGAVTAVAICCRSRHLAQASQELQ

`C[C@]1(CC(=O)Nc2nccs2)NCCc2cc(OCC3CCCO3)c(Oc3cccc(F)c3)cc21` (stereo partly drawn) [Example 82, 2-((1R)-7-(3-fluorophenoxy)-1-methyl-6-((tetrahydrofuran-2-yl)methoxy)-1,2,3,4-tetrahydroisoquinolin-1-yl)-N-(thiazol-2-yl)acetamide]: the thermal shift (ΔTm) at 300 µM at PCSK9 [1] was 7.47 °C. For the same compound, the IC50 at PCSK9 [2] amounted to 721 nM.
Regarding `COC(=O)c1cc(-c2cc3c(cc2OCC2CCCCO2)CCNC3(C)CC(=O)Nc2nccs2)ccc1F` (stereo not shown) [Example 111, methyl 2-fluoro-5-(1-methyl-1-(2-oxo-2-(thiazol-2-ylamino)ethyl)-6-((tetrahydro-2H-pyran-2-yl)methoxy)-1,2,3,4-tetrahydroisoquinolin-7-yl)benzoate], the ΔTm at 300 µM at PCSK9 [1] was found to be 6.27 °C. Besides, on PCSK9 [2], the IC50 was determined as 1.55 nM.
For the compound `COc1cc2c(cc1Oc1ccc(-c3ccc(CCC(=O)O)cc3)cc1)[C@@](C)(CC(=O)Nc1nccs1)NCC2` [Example 30, (R)-3-(4′-((6-methoxy-1-methyl-1-(2-oxo-2-(thiazol-2-ylamino)ethyl)-1,2,3,4-tetrahydroisoquinolin-7-yl)oxy)-[1,1′-biphenyl]-4-yl)propanoic acid], the thermal shift (ΔTm) at 300 µM on PCSK9 [1] turned out to be 5.48 °C. In addition, the IC50 at PCSK9 [2] was found to be 450 nM.
As to `C[C@]1(CC(=O)Nc2nccs2)NCCc2cc(OCC3CCCCO3)c(Oc3ccc(C(=O)O)c(F)c3)cc21` (single isomer, unassigned) [Example 70, 2-fluoro-4-(((1R)-1-methyl-1-(2-oxo-2-(thiazol-2-ylamino)ethyl)-6-(((R or S)-tetrahydro-2H-pyran-2-yl)methoxy)-1,2,3,4-tetrahydroisoquinolin-7-yl)oxy)benzoic acid], the ΔTm at 300 µM at PCSK9 [1] amounted to 7.98 °C. Moreover, the IC50 on PCSK9 [2] was determined as 551 nM.
On the same counts, the results for `C[C@]1(CC(=O)Nc2cccnn2)NCCc2cc(OCC3CCCCO3)c(Oc3ccc(Br)c(F)c3)cc21` (stereo partly drawn) [Example 88, 2-((1R)-7-(4-bromo-3-fluorophenoxy)-1-methyl-6-((tetrahydro-2H-pyran-2-yl)methoxy)-1,2,3,4-tetrahydroisoquinolin-1-yl)-N-(pyridazin-3-yl)acetamide] are 5.51 °C and 1.6 nM.
On the same counts, the results for `C[C@]1(CC(=O)Nc2cccc3[nH]ccc23)NCCc2cc(OCC3CCCCO3)c(Oc3ccc(-c4ccc(C(=O)O)cc4)c(F)c3)cc21` (stereo partly drawn) [Example 92, 4′-(((1R)-1-(2-((1H-indol-4-yl)amino)-2-oxoethyl)-1-methyl-6-((tetrahydro-2H-pyran-2-yl)methoxy)-1,2,3,4-tetrahydroisoquinolin-7-yl)oxy)-2′-fluoro-[1,1′-biphenyl]-4-carboxylic acid] are 7.28 °C and 958 nM.
In the same order, the values of `COc1cc2c(cc1Oc1ccc3cnccc3c1)[C@@](C)(CC(=O)Nc1nccs1)NCC2` [Example 6, (R)-2-(7-(isoquinolin-6-yloxy)-6-methoxy-1-methyl-1,2,3,4-tetrahydroisoquinolin-1-yl)-N-(thiazol-2-yl)acetamide] are 5.78 °C and 648 nM.
Consider `COc1ccccc1C(=O)Nc1ccccc1-n1cc(C(=O)NCc2cn(CCOc3cc4c(cc3Oc3ccc(C(=O)O)c(F)c3)[C@@](C)(CC(=O)Nc3nccs3)NCC4)nn2)nc1C` [Example 52, (R)-2-fluoro-4-((6-(2-(4-((1-(2-(2-methoxybenzamido)phenyl)-2-methyl-1H-imidazole-4-carboxamido)methyl)-1H-1,2,3-triazol-1-yl)ethoxy)-1-methyl-1-(2-oxo-2-(thiazol-2-ylamino)ethyl)-1,2,3,4-tetrahydroisoquinolin-7-yl)oxy)benzoic acid], for which, on PCSK9 [1], the thermal shift (ΔTm) at 300 µM was found to be 5.58 °C. In addition, the IC50 at PCSK9 [2] was 778 nM.
On to `C[C@]1(CC(=O)Nc2nccs2)NCCc2cc(OCC3CCCCO3)c(Oc3cccc(F)c3)cc21` (single isomer, unassigned) [Example 81, 2-((1R)-7-(3-fluorophenoxy)-1-methyl-6-(((S or R)-tetrahydro-2H-pyran-2-yl)methoxy)-1,2,3,4-tetrahydroisoquinolin-1-yl)-N-(thiazol-2-yl)acetamide], for which the “DSC ΔTm” value on PCSK9 [1] is 6.585 °C. The IC50 at PCSK9 [2] was 550 nM.
For the compound `COc1cc2c(cc1Oc1ccc(-c3ccc(CCC(=O)O)cc3)c(F)c1)[C@@](C)(CC(=O)Nc1nccs1)NCC2` [Example 32, (R)-3-(2′-fluoro-4′-((6-methoxy-1-methyl-1-(2-oxo-2-(thiazol-2-ylamino)ethyl)-1,2,3,4-tetrahydroisoquinolin-7-yl)oxy)-[1,1′-biphenyl]-4-yl)propanoic acid], at PCSK9 [1], the shift in melting temperature (ΔTm) at 300 µM amounted to 6.18 °C. Moreover, at PCSK9 [2], the IC50 amounted to 532 nM.
On the same counts, the results for `C[C@]1(CC(=O)Nc2nccs2)NCCc2cc(OCC(=O)O)c(Oc3ccc(C(=O)O)c(F)c3)cc21` [Example 64, (R)-4-((6-(carboxymethoxy)-1-methyl-1-(2-oxo-2-(thiazol-2-ylamino)ethyl)-1,2,3,4-tetrahydroisoquinolin-7-yl)oxy)-2-fluorobenzoic acid] are 7.83 °C and 294 nM.
For `C[C@]1(CC(=O)Nc2nccs2)NCCc2cc(OCCn3cc(C4(C(=O)O)CC4)nn3)c(Oc3ccc(C(=O)O)c(F)c3)cc21` [Example 48, (R)-4-((6-(2-(4-(1-carboxycyclopropyl)-1H-1,2,3-triazol-1-yl)ethoxy)-1-methyl-1-(2-oxo-2-(thiazol-2-ylamino)ethyl)-1,2,3,4-tetrahydroisoquinolin-7-yl)oxy)-2-fluorobenzoic acid], the shift in melting temperature (ΔTm) at 300 µM at PCSK9 [1] came out at 6.02 °C. In addition, the IC50 at PCSK9 [2] was 678 nM.
For `C[C@]1(CC(=O)Nc2nccs2)NCCc2cc(OCCOCCNC(=O)CCCC[C@@H]3SC[C@@H]4NC(=O)N[C@@H]43)c(Oc3ccc(C(=O)O)cc3)cc21` [Example 60, 4-(((R)-1-methyl-1-(2-oxo-2-(thiazol-2-ylamino)ethyl)-6-(2-(2-(5-((3aS,4S,6aR)-2-oxohexahydro-1H-thieno[3,4-d]imidazol-4-yl)pentanamido)ethoxy)ethoxy)-1,2,3,4-tetrahydroisoquinolin-7-yl)oxy)benzoic acid], the ΔTm at 300 µM at PCSK9 [1] turned out to be 6.42 °C.
`CC1=CC(C)=[N+]2C1=Cc1ccc(CCC(=O)NCCOCCOc3cc4c(cc3Oc3ccc(C(=O)O)c(F)c3)[C@@](C)(CC(=O)Nc3nccs3)NCC4)n1[B-]2(F)F` [Example 57]: the “DSC ΔTm” value at PCSK9 [1] stood at 6.15 °C.
`COC(=O)c1ccc(Oc2cc3c(cc2OCCOCCNC(=O)CCC2=[N+]4C(=Cc5c(C)cc(C)n5[B-]4(F)F)C=C2)CCN[C@]3(C)CC(=O)Nc2nccs2)cc1F` [Example 61, methyl (R)-4-((6-(2-(2-(3-(5,5-difluoro-7,9-dimethyl-5H-4l4,5l4-dipyrrolo[1,2-c:2′,1′-f][1,3,2]diazaborinin-3-yl)propanamido)ethoxy)ethoxy)-1-methyl-1-(2-oxo-2-(thiazol-2-ylamino)ethyl)-1,2,3,4-tetrahydroisoquinolin-7-yl)oxy)-2-fluorobenzoate]: the ΔTm at 300 µM at PCSK9 [1] is 2.87 °C.
Still for that read-out and setting: with `COc1cc2c(cc1-c1ccc(F)c(C(=O)O)c1)[C@@](C)(CC(=O)Nc1nccs1)NCC2` [Example 112, (R)-2-fluoro-5-(6-methoxy-1-methyl-1-(2-oxo-2-(thiazol-2-ylamino)ethyl)-1,2,3,4-tetrahydroisoquinolin-7-yl)benzoic acid] the figure was 6.8 °C.
Turning to `Cc1cc(C)n2c1C=C1C=CC(CCC(=O)NCCOCCOc3cc4c(cc3Oc3ccc(C(=O)O)cc3)[C@@](C)(CC(=O)Nc3nccs3)NCC4)=[N+]1[B-]2(F)F` [Example 59, (R)-4-((6-(2-(2-(3-(5,5-difluoro-7,9-dimethyl-5H-4l4,5l4-dipyrrolo[1,2-c:2′,1′-f][1,3,2]diazaborinin-3-yl)propanamido)ethoxy)ethoxy)-1-methyl-1-(2-oxo-2-(thiazol-2-ylamino)ethyl)-1,2,3,4-tetrahydroisoquinolin-7-yl)oxy)benzoic acid], the thermal shift (ΔTm) at 300 µM on PCSK9 [1] came out at 5.15 °C.
On to `Cc1ncsc1-c1ccc(CNC(=O)[C@@H]2C[C@@H](O)CN2C(=O)[C@@H](NC(=O)COCC(=O)NCCOCCOc2cc3c(cc2Oc2ccc(-c4ccc(C(=O)O)cc4)c(F)c2)[C@@](C)(CC(=O)Nc2nccs2)NCC3)C(C)(C)C)cc1` [Example 105, 2′-fluoro-4′-(((R)-6-(((S)-13-((2S,4R)-4-hydroxy-2-((4-(4-methylthiazol-5-yl)benzyl)carbamoyl)pyrrolidine-1-carbonyl)-14,14-dimethyl-7,11-dioxo-3,9-dioxa-6,12-diazapentadecyl)oxy)-1-methyl-1-(2-oxo-2-(thiazol-2-ylamino)ethyl)-1,2,3,4-tetrahydroisoquinolin-7-yl)oxy)-[1,1′-biphenyl]-4-carboxylic acid], for which the IC50 at PCSK9 [2] was 225 nM.
As for `C[C@]1(CC(=O)Nc2nccs2)NCCc2cc(OCCOCCOCCNC(=O)CCCC[C@@H]3SC[C@@H]4NC(=O)N[C@@H]43)c(Oc3ccc(C(=O)O)cc3)cc21` [Example 58, 4-(((R)-1-methyl-1-(2-oxo-2-(thiazol-2-ylamino)ethyl)-6-(2-(2-(2-(5-((3aS,4S,6aR)-2-oxohexahydro-1H-thieno[3,4-d]imidazol-4-yl)pentanamido)ethoxy)ethoxy)ethoxy)-1,2,3,4-tetrahydroisoquinolin-7-yl)oxy)benzoic acid], at PCSK9 [1], the ΔTm at 300 µM came out at 5.88 °C.
